The subject of assay [1] is knee osteoarthritis pain model. To be noted: rats, 10 mg/kg; cited from earlier work.
Assay [2] can be described thus: Analgesic effect of SOS1 inhibitor combined with Tanezumab. It is filed as in vivo.
Assay [3] concerns NGF stimulated pERK1/2 activation in PC-12 cells. The assay can be described thus: Tanezumab / SOS1 inhibitor combination in the NGF stimulated pERK1/2 PC-12 assay. Type of assay: cell-based, rat. Here is the method:
The combined inhibitory effect of a selective, small molecule SOS1 inhibitor and known antibody based NGF inhibitor, Anti-NGF was monitored via an HTRF readout measuring phosphorylation of ERK1/2 by NGF activation. All assays were performed in rat adrenal PC-12 cells (Merck) that had been serum-starved for a period of 24 hours in RPMI-1640 growth medium (Gibco) supplemented with 1% heat-inactivated horse serum (Merck), 0.5% heat-inactivated fetal bovine serum (FBS), 1% penicillin-streptomycin and 2 mM L-Glutamine unless specified otherwise. Reagents from the HTRF commercial kit (Cisbio) were prepared according to the manufacturer's instructions.
PC-12 cells were isolated from routine cellular culture and plated at an appropriate cell density (typically 25,000 cells per well) in 384-well plates for 24 hours under serum-starved conditions. Working preparations of varying Anti-NGF (Abcam) concentrations and a fixed NGF concentration were prepared in serum-starved media and pre-incubated for 30 minutes (37° C./5% CO2). […] A 2-hour incubation at room temperature was performed prior to fluorescence signal being measured in a microplate reader (PHERAstar FSX, BMG Labtech).
Percentage inhibition values were calculated per compound concentration by normalising the sample data to the high and low controls used within each plate (+/−250 ng/mL NGF respectively). […] Response data were then plotted against the molar logarithm for each SOS1 inhibitor compound concentration together with the determined fit results for display purposes. […] The mean percentage inhibition value calculated for both the top and bottom concentration of SOS1 inhibitor compound tested per Anti-NGF:NGF combination was extracted and compared in tabular form across the different Anti-NGF:NGF combinations tested.
The ability of an NGF inhibitor Tanezumab in combination with a SOS1 inhibitor to treat pain was measured in the Inhibition of Nerve Growth Factor (NGF) stimulated phospho-Extracellular Regulated Kinase 1 and 2 (pERK1/2) activation in the PC-12 cell line assay.

“Tanezumab: an example of an anti-NGF antibody”: the efficacy result in assay [1] is on record as “shows efficacy”; in assay [3] (Tanezumab 50 nM in combination with SOS1 inhibitor 500 nM) it was approximately 96%; in assay [3] (Tanezumab alone, 50 nM) it was 90%; in assay [3] (tanezumab alone, 200 nM), 100%. Besides, the analgesic effect result in assay [2] (0.3 mg/kg Tanezumab in combination with low doses of a SOS1 inhibitor) is given as “significant analgesic effect”. Besides, the “increase in analgesia versus dose” value in assay [2] (fixed dose SOS1 inhibitor, varied antibody dose) is listed as “efficacy is dose related”.

These data come from US20250325572A1, “TREATMENTS FOR PAIN” (Sevenless Therapeutics Limited, priority 2022, published 2025).
